System: mesenchymal stem cells (MSCs)
Test: Scanning Electron Micrographs of MSC density on coral biomatrices with and without calcium chelator
Assay type: cell-based, Mus-musculus
Conditions: incubation with the calcium chelator; FIGS. 2Aj, 2Al
Protocol: Two biomaterial derivatives were prepared, one from the hydrocoral M. dichotoma (designated MIL) and the other, for purposes of comparison, from scleractinian coral P. lutea—(designated POR). Colonies of M. dichotoma were collected from the shallow seawater zones adjacent to the Interuniversity Institute of Marine Science (IUD in Eilat, Israel, at depths of 6-8 meters. Each colony was cut into fragments and glued with epoxy resin into the tops of PVC tubes. After an adjustment period of 3 months, cloned fragments were transferred to a laboratory tank system. POR were prepared from cores drilled out from long-lived massive colonies.
Both types of skeleton were cut into blocks and bleached using a commercial hypochloride solution. After this preliminary cleaning process, samples were rinsed with distilled water and air-dried. […]
Images were acquired using an Axiovert-200 (Zeiss, Germany) inverted microscope equipped with X20 Plan-Neofluar (N.A. 0.50) and X40 LD-Acrhoplan objectives (N.A. 0.60) and a cooled CCD camera (SensiCam, PCO, USA) controlled by Metamorph (version 6.2, Universal Imaging, Downingtown, Pa.). […] Cells were counted manually, and the numbers were averaged and interpolated for 1 mm^2 of crystalline surface.

O=C(O)CN(CCOCCOCCN(CC(=O)O)CC(=O)O)CC(=O)O [EGTA, O,O′-bis(2-aminoethyl)ethyleneglycol tetraacetic acid]
local cell density on coral seeded with MSCs, effect of calcium chelator: further increased local cell density
